Results as given in patent US10023559B2 (Hoffmann-La Roche Inc., priority 2014, dated 2018).

Columns and labels:
rat TAAR1 = rat TAAR1 (Rattus norvegicus (Rat), UniProt Q923Y9); assay: Radioligand binding assay on rat TAAR1; conditions: read-out: Ki(μM) rat; rat TAAR1, HEK-293 membranes, second value of cell pair mouse/rat
Procedure: (§1) Membrane Preparation and Radioligand Binding.
HEK-293 cells stably expressing rat TAAR1 were maintained at 37° C. and 5% CO2 in DMEM high glucose medium, containing fetal calf serum (10%, heat inactivated for 30 min at 56° C.), penicillin/streptomycin (1%), and 375 μg/ml geneticin (Gibco). Cells were released from culture flasks using trypsin/EDTA, harvested, washed twice with ice-cold PBS (without Ca^2+ and Mg^2+), pelleted at 1,000 rpm for 5 min at 4° C., frozen and stored at −80° C. Frozen pellets were suspended in 20 ml HEPES-NaOH (20 mM, pH 7.4) containing 10 mM EDTA and homogenized with a Polytron (PT 6000, Kinematica) at 14,000 rpm for 20 s. The homogenate was centrifuged at 48,000×g for 30 min at 4° C. Subsequently, the supernatant was removed and discarded, and the pellet resuspended in 20 ml HEPES-NaOH (20 mM, pH 7.4) containing 0.1 mM EDTA using the Polytron (20 s at 14,000 rpm). This procedure was repeated and the final pellet resuspended in HEPES-NaOH containing 0.1 mM EDTA and homogenized using the Polytron. Typically, aliquots of 2 ml membrane portions were stored at −80° C. With each new membrane batch the dissociation constant (Kd) was determined via a saturation curve. […] Nonspecific binding was defined as the amount of [H]—(S)-4-[(ethyl-phenyl-amino)-methyl]-4,5-dihydro-oxazol-2-ylamine bound in the presence of 10 M unlabeled ligand. All compounds were tested at a broad range of concentrations (10 pM to 10 μM) in duplicates. […] The 96 deep well plates were incubated for 1 hr at 4° C. Incubations were terminated by rapid filtration through Unifilter-96 plates (Packard Instrument Company) and glass filters GF/C (Perkin Elmer) presoaked for 1 hr in polyethylenimine (0.3%) and washed 3 times with 1 ml of cold binding buffer. After addition of 45 μl of Microscint 40 (PerkinElmer) the Unifilter-96 plate was sealed and after 1 hr the radioactivity counted using a TopCount Microplate Scintillation Counter (Packard Instrument Company).

mouse TAAR1 = mouse TAAR1 (Mus musculus (Mouse), UniProt Q923Y8); assay: Radioligand binding assay on mouse TAAR1
Chain of mouse TAAR1 (Q923Y8 whole entry): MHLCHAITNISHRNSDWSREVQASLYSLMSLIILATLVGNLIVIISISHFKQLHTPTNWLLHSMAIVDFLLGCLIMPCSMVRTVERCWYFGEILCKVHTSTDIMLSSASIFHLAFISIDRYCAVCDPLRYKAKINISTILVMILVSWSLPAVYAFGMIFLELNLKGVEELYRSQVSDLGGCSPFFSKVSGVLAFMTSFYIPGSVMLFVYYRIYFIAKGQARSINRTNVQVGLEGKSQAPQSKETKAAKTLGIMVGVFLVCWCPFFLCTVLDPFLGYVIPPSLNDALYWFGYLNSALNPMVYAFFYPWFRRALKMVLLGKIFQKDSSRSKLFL
Procedure: as §1
HEK-293 cells stably expressing mouse TAAR1 were maintained at 37° C. and 5% CO2 in DMEM high glucose medium, containing fetal calf serum (10%, heat inactivated for 30 min at 56° C.), penicillin/streptomycin (1%), and 375 μg/ml geneticin (Gibco). Cells were released from culture flasks using trypsin/EDTA, harvested, washed twice with ice-cold PBS (without Ca^2+ and Mg^2+), pelleted at 1,000 rpm for 5 min at 4° C., frozen and stored at −80° C. Frozen pellets were suspended in 20 ml HEPES-NaOH (20 mM, pH 7.4) containing 10 mM EDTA and homogenized with a Polytron (PT 6000, Kinematica) at 14,000 rpm for 20 s. The homogenate was centrifuged at 48,000×g for 30 min at 4° C. Subsequently, the supernatant was removed and discarded, and the pellet resuspended in 20 ml HEPES-NaOH (20 mM, pH 7.4) containing 0.1 mM EDTA using the Polytron (20 s at 14,000 rpm). This procedure was repeated and the final pellet resuspended in HEPES-NaOH containing 0.1 mM EDTA and homogenized using the Polytron. Typically, aliquots of 2 ml membrane portions were stored at −80° C. With each new membrane batch the dissociation constant (Kd) was determined via a saturation curve. […] Nonspecific binding was defined as the amount of ^3[H]—(S)-4-[(ethyl-phenyl-amino)-methyl]-4,5-dihydro-oxazol-2-ylamine bound in the presence of 10 M unlabeled ligand. All compounds were tested at a broad range of concentrations (10 pM to 10 μM) in duplicates. […] The 96 deep well plates were incubated for 1 hr at 4° C. Incubations were terminated by rapid filtration through Unifilter-96 plates (Packard Instrument Company) and glass filters GF/C (Perkin Elmer) presoaked for 1 hr in polyethylenimine (0.3%) and washed 3 times with 1 ml of cold binding buffer. After addition of 45 μl of Microscint 40 (PerkinElmer) the Unifilter-96 plate was sealed and after 1 hr the radioactivity counted using a TopCount Microplate Scintillation Counter (Packard Instrument Company).

Chain of rat TAAR1 (Q923Y9 whole entry): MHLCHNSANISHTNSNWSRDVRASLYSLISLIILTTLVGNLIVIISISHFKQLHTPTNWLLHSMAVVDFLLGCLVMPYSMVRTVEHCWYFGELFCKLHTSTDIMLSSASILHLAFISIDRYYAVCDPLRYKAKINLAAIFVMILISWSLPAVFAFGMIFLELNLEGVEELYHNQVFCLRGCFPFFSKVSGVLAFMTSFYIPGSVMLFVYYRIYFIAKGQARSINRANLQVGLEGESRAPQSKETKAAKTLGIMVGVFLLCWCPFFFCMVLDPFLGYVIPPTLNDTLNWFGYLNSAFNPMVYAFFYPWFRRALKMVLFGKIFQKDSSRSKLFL

Compound	Ki (rat TAAR1) [µM]	Ki (mouse TAAR1) [nM]
Cc1cc(C(=O)Nc2cc(F)c(C=C3CNC3)c(F)c2)nc(C(F)(F)F)n1 [Example 82, N-(4-(azetidin-3-ylidenemethyl)-3,5-difluorophenyl)-6-methyl-2-(trifluoromethyl)pyrimidine-4-carboxamide]	0.0055	27.8
CO[C@H]1CN[C@@H]1Cc1ccccc1 [Example 101, (2R,3S)-2-benzyl-3-methoxyazetidine]	2.04	2610
COc1ccc(NC(=O)Nc2ccc(OC3CNC3)cc2)cc1 [Example 108, 1-[4-(azetidin-3-yloxy)phenyl]-3-(4-methoxyphenyl)urea]	0.0269	108
O=C(Nc1ccc(C[C@H]2NC[C@H]2F)cc1)c1cnc(C(F)(F)F)nc1 [Example 123, N-(4-(((2R,3R)-3-fluoroazetidin-2-yl)methyl)phenyl)-2-(trifluoromethyl)pyrimidine-5-carboxamide]	0.61	23.2
O=C(Nc1ccc(Cl)nc1)c1ccc(OC2CNC2)cc1 [Example 30, 4-(azetidin-3-yloxy)-N-(6-chloropyridin-3-yl)benzamide]	0.527	19.1
c1ccc(CC2CNC2)cc1 [Example 1, 3-benzylazetidine]	0.701	1570
O=C(Nc1ccc(OC2CNC2)cc1)c1cnc(C2CC2)nc1 [Example 14, N-(4-(azetidin-3-yloxy)phenyl)-2-cyclopropylpyrimidine-5-carboxamide]	0.1	14.9
CO[C@H]1CN[C@H]1Cc1ccccc1 [Example 94, (2S,3S)-2-benzyl-3-methoxyazetidine]	0.767	4050
O=C(Nc1ccc(OC2CNC2)cc1)c1ccc(Cl)cc1 [Example 4, N-(4-(azetidin-3-yloxy)phenyl)-4-chlorobenzamide]	0.0087	1.1
O=C(Nc1ccc(OC2CNC2)cc1F)c1cnc(C2CC2)nc1 [Example 38, N-[4-(azetidin-3-yloxy)-2-fluoro-phenyl]-2-cyclopropyl-pyrimidine-5-carboxamide]	0.853	35.1
O=C(NCc1ccc(F)cc1)c1ccc(OC2CNC2)cc1 [Example 18, 4-(azetidin-3-yloxy)-N-[(4-fluorophenyl)methyl]benzamide]	1.63	109
CCc1n[nH]c(C(=O)Nc2ccc(CC3(F)CNC3)cc2)c1Cl [Example 66, 4-chloro-3-ethyl-N-[4-[(3-fluoroazetidin-3-yl)methyl]phenyl]-1H-pyrazole-5-carboxamide]	0.0824	323
F[C@H]1CN[C@@H]1Cc1ccccc1 [Example 93, (2R,3S)-2-benzyl-3-fluoroazetidine]	2.09	1280
CO[C@@H]1CN[C@@H]1Cc1ccccc1 [Example 100, (2R,3R)-2-benzyl-3-methoxyazetidine]	0.151	317
CC(C)c1cc(C(=O)Nc2ccc(C[C@H]3NC[C@H]3F)cc2)[nH]n1 [Example 125, N-(4-(((2R,3R)-3-fluoroazetidin-2-yl)methyl)phenyl)-3-isopropyl-1H-pyrazole-5-carboxamide]	0.466	16

The remaining lines, values ahead:

Ki (rat TAAR1) [µM]	Ki (mouse TAAR1) [nM]	Compound
0.0106	5.2	O=C(Nc1ccc(OC2CNC2)cc1)c1cnc(C(F)(F)F)cn1 [Example 75, N-[4-(azetidin-3-yloxy)phenyl]-5-(trifluoromethyl)pyrazine-2-carboxamide]
0.66	77.7	O=C(Nc1ccc(NC2CNC2)cc1)c1ccnc(C(F)(F)F)c1 [Example 3, N-[4-(azetidin-3-ylamino)phenyl]-2-(trifluoromethyl)pyridine-4-carboxamide]
0.0016	3.7	O=C(Nc1ccc(C=C2CNC2)cc1)Nc1ccc(C(F)(F)F)cc1 [Example 116, 1-[4-(azetidin-3-ylidenemethyl)phenyl]-3-[4-(trifluoromethyl)phenyl]urea]
0.0154	27.7	COc1ccc(NC(=O)Nc2ccc(C=C3CNC3)cc2)cc1 [Example 117, 1-[4-(azetidin-3-ylidenemethyl)phenyl]-3-(4-methoxyphenyl)urea]
0.246	121	O=C(Nc1ccc(C=C2CNC2)cc1)c1ccc(Cl)cc1 [Example 61, N-[4-(azetidin-3-ylidenemethyl)phenyl]-4-chloro-benzamide]
0.0042	8.7	O=C(Nc1ccc(CC2CNC2)cc1)Nc1ccc(C(F)(F)F)cc1 [Example 113, 1-[4-(azetidin-3-ylmethyl)phenyl]-3-[4-(trifluoromethyl)phenyl]urea]
0.0435	6.8	Cn1nc(C(=O)Nc2ccc(OC3CNC3)cc2)c(Cl)c1C(F)(F)F [Example 43, N-[4-(azetidin-3-yloxy)phenyl]-4-chloro-1-methyl-5-(trifluoromethyl)pyrazole-3-carboxamide]
0.0071	6.4	COc1cc(C(=O)Nc2ccc(CC3(F)CNC3)cc2)nc(C(F)(F)F)n1 [Example 68, 6 N-[4-[(3-fluoroazetidin-3-yl)methyl]phenyl]-6-methoxy-2-(trifluoromethyl)pyrimidine-4-carboxamide]
0.0014	3.3	O=C(Nc1cc(F)c(C=C2CNC2)c(F)c1)c1ccc(Cl)nc1 [Example 84, N-(4-(azetidin-3-ylidenemethyl)-3,5-difluorophenyl)-6-chloronicotinamide]
0.0142	2.8	O=C(Nc1ccc(OC2CNC2)cc1)c1[nH]nc(C(F)(F)F)c1Cl [Example 40, N-[4-(azetidin-3-yloxy)phenyl]-4-chloro-3-(trifluoromethyl)-1H-pyrazole-5-carboxamide]
0.0208	12.8	O=C(Nc1ccc(OC2CNC2)cc1)c1cnc(OCC(F)(F)F)nc1 [Example 19, N-(4-(azetidin-3-yloxy)phenyl)-2-(2,2,2-trifluoroethoxy)pyrimidine-5-carboxamide]
0.0035	0.9	O=C(Nc1ccc(CC2(F)CNC2)cc1)c1ccc(Cl)cc1 [Example 52, 4-chloro-N-[4-[(3-fluoroazetidin-3-yl)methyl]phenyl]benzamide]
0.0188	1.4	O=C(Nc1ccc(C=C2CNC2)cc1)c1n[nH]c(C2CC2)c1Cl [Example 58, N-[4-(azetidin-3-ylidenemethyl)phenyl]-4-chloro-3-cyclopropyl-1H-pyrazole-5-carboxamide]
0.0417	52.9	COC1(Cc2ccc(NC(=O)c3cnc(C(F)(F)F)nc3)cc2)CNC1 [Example 74, N-[4-[(3-methoxyazetidin-3-yl)methyl]phenyl]-2-(trifluoromethyl)pyrimidine-5-carboxamide]
0.0701	32.8	O=C(Nc1ccc(OC2CNC2)cc1)c1cc(C(F)(F)F)n[nH]1 [Example 24, N-(4-(azetidin-3-yloxy)phenyl)-3-(trifluoromethyl)-1H-pyrazole-5-carboxamide]
0.0134	50.9	Cc1cc(C(=O)Nc2ccc(C=C3CNC3)c(F)c2)nc(C(F)(F)F)n1 [Example 85, N-(4-(azetidin-3-ylidenemethyl)-3-fluorophenyl)-6-methyl-2-(trifluoromethyl)pyrimidine-4-carboxamide]
0.139	161	COc1ccc(NC(=O)Nc2ccc(SC3CNC3)cc2)cc1 [Example 111, 1-[4-(azetidin-3-ylsulfanyl)phenyl]-3-(4-methoxyphenyl)urea]
